Measured values as given in article PMC8022858, “Discovery of bone morphogenetic protein 7-derived peptide sequences that attenuate the human osteoarthritic chondrocyte phenotype” (Molecular Therapy. Methods & Clinical Development, 2021).

Key:
OA-HACs = assay: PGE2 EIA in OA-HAC culture supernatant; type: cell-based, human; details: three individual OA-HAC donors, 100 nM peptide, 24 h (Figure 2F)
Protocol: Figure 2 Bioactivity of BMP7-derived peptides p[63−82] and p[113−132] on OA-HACs Complete peptide library screening quantitative real-time PCR dataset for peptides p[63−82] and p[113−132] is presented. (A) SOX9, COL2A1, and NKX3-2 mRNA expression in the 18 OA-HAC pool exposed to 1,000, 100, 10, or 1 nM of peptide p[63−82] and p[113−132] is shown and presented relative to control (black bars) and alongside full-length BMP7 (white bars). (B) Similar to (A) but for chondrocyte hypertrophy-associated genes RUNX2, COL10A1, and ALPL. (C) Similar to (A) but for cartilage extracellular matrix remodeling-associated genes MMP13 and ADAMTS5 and inflammation-related genes COX-2 and IL-6. […] (G) In the same OA-HAC pool of 18 OA-HAC donors from the peptide library screening, sequence dependency of peptides p[63−82] and p[113−132] was determined by exposing the OA-HAC pool to scrambled versions of peptides p[63−82] and p[113−132] […] Error bars represent mean ± SEM, and statistical significance for peptide conditions or BMP7 versus control condition as determined by unpaired two-tailed Student’s t test is represented as ∗p < 0.05, ∗∗p < 0.01, and ∗∗∗p < 0.001.
PGE2 levels were determined in the culture supernatant. PGE2 concentration was determined by a standardized enzyme immunoassay (EIA) according to the manufacturer’s protocol (Cayman Chemical).

[1] = tested on: HACs in OA synovial fluid (SF); assay: Peptide bioactivity on HACs cultured in OA synovial fluid (gene expression, sGAG, ALP activity, PGE2); type: cell-based, human; details: 100 nM peptide, 20% (v/v) OA SF; for sGAG content of HAC cultures: 24 h (Figure 3D); for retainment of bioactivity on ALP activity in OA SF environment: 24 h (Figure 3E); for retainment of bioactivity on PGE2 secretion in OA SF environment: 24 h (Figure 3F); for expression of NKX3-2 / OA SF-induced expression of RUNX2, COL10A1, ALPL, MMP13, ADAMTS5, COX-2, and IL6 / OA SF-induced decline of SOX9 and COL2A1 expression: 24 h; for expression of NKX3-2: n = 3 donors (Figure 3A); for OA SF-induced expression of RUNX2, COL10A1, ALPL, MMP13, ADAMTS5, COX-2, and IL6: n = 3 donors (Figures 3B, 3C); for OA SF-induced decline of SOX9 and COL2A1 expression: n = 3 donors in triplicate (Figure 3A)
Excerpt: To further corroborate the potential OA-protective properties of peptides p[63−82] and p[113−132], we mimicked the OA environment by exposing non-OA-HACs to OA SF. Culturing non-OA-HACs in the presence of OA SF reduced their SOX9, COL2A1, and NKX3-2 expression (Figure 3A), whereas expression of RUNX2, COL10A1, ALPL, MMP13, ADAMTS5, COX-2, and IL6 was induced by OA SF (Figures 3B and 3C). This was accompanied by increased ALP activity and PGE2 secretion (Figures 3E and 3F). […] The OA SF-induced expression of RUNX2, COL10A1, ALPL, MMP13, ADAMTS5, COX-2, and IL6 was, without exception, mitigated by peptides p[63−82] and p[113−132] (Figures 3B and 3C). sGAG content of HAC cultures was unaltered by the peptides (Figure 3D). Retainment of peptide p[63−82] and p[113−132] bioactivity on HACs in an OA SF environment was also confirmed for ALP activity (Figure 3E) and PGE2 secretion (Figure 3F).
Figure 3 Bioactivity of peptides p[63−82] and p[113−132] on OA articular chondrocytes in OA synovial fluid (SF) […] (n = 3 individual donors, tested in triplicate) were exposed to 100 nM peptide p[63−82] or p[113−132] in the presence of OA SF (20% [v/v]; equal ratio mix from five individual donors). Control is 20% (v/v) 0.9% NaCl. Cells were cultured in these conditions for 24 h and analyzed for mRNA expression of indicated genes (normalized for 28S rRNA expression and relative to control condition). (A) Expression of SOX9, COL2A1, and NKX3-2 mRNAs. (B) Expression of RUNX2, COL10A1, and ALPL mRNAs. (C) Expression of MMP13, ADAMTS5, COX-2, and IL-6 mRNAs. (D) GAG content (normalized to total protein content) was determined in the same conditions. (E) ALP enzyme activity in cell lysates of the same conditions was determined and normalized for total protein content. (F) PGE2 levels in culture supernatants of the same conditions. Error bars represent mean ± SEM, and statistical significance for peptide conditions or control versus SF condition as determined by unpaired two-tailed Student’s t test is represented as ∗p < 0.05, ∗∗p < 0.01, and ∗∗∗p < 0.001.
Cartilage was obtained from total knee arthroplasty of end-stage (K&L grades 3−4) OA patients and from resected knee cartilage from cartilage repair procedures of non-OA patients. Medical ethical permission was received from the Maastricht University Medical Center Medical Ethical Committee (approval number 2017-0183). Chondrocytes were isolated using collagenase as described earlier.[27] The HACs were cultured until passage two in DMEM/F12 (Life Technologies), 10% fetal calf serum (FCS; Sigma-Aldrich), 1% antibiotic/antimycotic (Life Technologies), and 1% non-essential amino acids (Life Technologies) in a humidified atmosphere at 37°C, 5% CO2. SW1353 cells (ATCC HTB-94, short tandem repeat [STR] profiled)[54] were cultured in identical conditions. For experiments, cells were plated in technical triplicates at 30,000 cells/cm^2. BMP7 (R&D Systems) was used at 1 nM. OA SF was perioperatively collected from OA patients (same medical ethics statement [2017-0183] as for cartilage above) and was centrifuged to remove cells/debris. For experiments, an SF pool from five OA patients was prepared (equal volume ratios) and applied on cells in a 20% (v/v) concentration. For RNAi, scrambled and NKX3-2 siRNA duplexes (Table S1) were custom made (Eurogentec). Transfection (100 nM siRNA) in HACs was performed using HiPerFect (QIAGEN) according to the manufacturer’s protocol. The BRE reporter,[32] CAGA12 reporter,[33] or cytomegalovirus (CMV)-Gaussia as transfection control[55] were transfected (100 ng/μL) in SW1353 cells using FuGENE (Promega) according to the manufacturer’s protocol. […]

Question: How did the “prostaglandin E2 (PGE2) levels in culture supernatant” value (OA-HACs) turn out when H-SVLYFDDSSNVILKKYRNMV-OH [p[113−132]] was run?
Answer: Its value is “significant decrease”.

Question: What about the “sGAG content of HAC cultures” value [1] of the same substance?
Answer: The value was “unaltered”.

Question: What about the “retainment of bioactivity on ALP activity in OA SF environment” value [1] of the same substance?
Answer: Its value is “confirmed”.

Question: And the “retainment of bioactivity on PGE2 secretion in OA SF environment” value [1]?
Answer: The value was “confirmed”.

Question: And the “expression of NKX3-2” value [1]?
Answer: The value was “induced by the peptides to levels higher than in the control condition”.

Question: And the “OA SF-induced expression of RUNX2, COL10A1, ALPL, MMP13, ADAMTS5, COX-2, and IL6” value [1]?
Answer: The value was “mitigated”.

Question: What about the “OA SF-induced decline of SOX9 and COL2A1 expression” value [1] of the same substance?
Answer: Its value is “counteracted to some extent”.

Question: How did the “prostaglandin E2 (PGE2) levels in culture supernatant” value (OA-HACs) turn out when H-AAYYSEGESAFPLNSYMNAT-OH [p[63−82]] was run?
Answer: The value was “significant decrease”.

Question: What about the “sGAG content of HAC cultures” value [1] of the same substance?
Answer: The value was “unaltered”.

Question: And the “retainment of bioactivity on ALP activity in OA SF environment” value [1]?
Answer: The value was “confirmed”.

Question: What about the “retainment of bioactivity on PGE2 secretion in OA SF environment” value [1] of the same substance?
Answer: The value was “confirmed”.

Question: And the “expression of NKX3-2” value [1]?
Answer: The value was “induced by the peptides to levels higher than in the control condition”.

Question: And the “OA SF-induced expression of RUNX2, COL10A1, ALPL, MMP13, ADAMTS5, COX-2, and IL6” value [1]?
Answer: The value was “mitigated”.

Question: What about the “OA SF-induced decline of SOX9 and COL2A1 expression” value [1] of the same substance?
Answer: Its value is “counteracted to some extent”.
